Measurements from patent publication US20260374773A1, “MULTI-CYCLIC IRAK AND FLT3 INHIBITING COMPOUNDS AND USES THEREOF” (CHILDREN'S HOSPITAL MEDICAL CENTER, priority 2022, published 2026).

Assays:
[1] = target: IRAK1 (Homo sapiens, UniProt P51617); assay: RBC HotSpot kinase inhibition assay, IRAK1; assay type: biochemical; conditions: isolated kinase, 33P-ATP, 2 h
Source text: (§1) This assay uses the isolated kinase enzyme. This assay is very useful for determining competition of the inhibitor for ATP and/or substrates and for measuring the kinetics of enzyme inhibition. […] Unlike kinase binding assays that measure competition for ATP, the HotSpot Kinase Assay is a functional assay that measures catalytic activity; as such it measures relative functional potency regardless of the mechanism of enzyme inhibition. This assay uses the form of the various enzymes that are easiest to express, which may not necessarily be the form of the enzyme that exist in the cell. (Sometimes the carboxy terminus has been truncated to aid in expression, or, if it is a receptor kinase, the enzyme itself is isolated from the other parts of the receptor that are involved in regulating kinase activity.)
The reagent used was as follows: Base Reaction buffer; 20 mM Hepes (pH 7.5), 10 mM MgCl2, 1 mM EGTA, 0.01% Brij35, 0.02 mg/ml BSA, 0.1 mM Na3VO4, 2 mM DTT, 1% DMSO. Required cofactors were added individually to each kinase reaction.
(§2) The reaction procedure was as follows: • 1) Substrates were prepared in freshly prepared Reaction Buffer. • 2) Any required cofactors were delivered to the substrate solution above. • 3) Kinase was delivered into the substrate solution and gently mixed. • 4) Compounds were delivered in 100% DMSO into the kinase reaction mixture by Acoustic technology (Echo550; nanoliter range), followed by incubation for 20 min at room temp. • 5) ^33P-ATP was delivered into the reaction mixture to initiate the reaction. • 6) The mixture was incubated for 2 hours at room temperature. • 7) Kinase activity was detected by P81 filter-binding method.
as §1, with “Although not wishing to be limited by theory, it is believed that sometimes” for “(Sometimes”, “activity.” for “activity.)”
The reagent used was as follows: Base Reaction buffer; 20 mM Hepes (pH 7.5), 10 mM MgCl2, 1 mM EGTA, 0.01% Brij35, 0.02 mg/ml BSA, 0.1 mM Na3 VO4, 2 mM DTT, 1% DMSO.
Required cofactors were added individually to each kinase reaction.
as §2, with “33P-ATP” for “^33P-ATP”

[2] = tested on: MOLM14 D835Y cells; assay: MOLM14 D835Y cell viability (Cell Titer Glo); assay type: cell-based; conditions: Homo sapiens
Method: Both cell lines have activated FLT3 receptors, each of which carry additional resistance mutations in the kinase domain (D835Y and F691L, respectively).
(§3) MOLM14 D835Y and MOLM14 F691L cells were grown in RPMI-1640 media supplemented with 20% fetal bovine serum (FBS). For viability/cytotoxicity assessments, cells were seeded into 1536-well white polystyrene tissue culture-treated Greiner plates using a Multidrop Combi dispenser (ThermoFisher), in final volume 5 μL of growth media per well, at a density of 1000 cells per well. After cell addition, 23 nL of test compound were transferred into individual wells (22 doses tested for each test compound, with a 1:2 dilution series starting at 10 μM) via a 1536 pin-tool. Bortezomib (final concentration 2.3 μM) was used as a positive control for cell cytotoxicity. Plates were incubated for 48 hours at standard incubator conditions covered by a stainless steel gasketed lid to prevent evaporation. 48 hours post compound addition, 3 μL of Cell Titer Glo (Promega) were added to each well and plates were incubated at room temperature for 15 minutes with the stainless-steel lid in place. Luminescence readings were taken using a Viewlux imager (PerkinElmer) with a 2 second exposure time per plate.
This cell line has activated FLT3 receptors, which carries an additional resistance mutation in the kinase domain at D835Y.
as §3, with “D835Y” for “D835Y and MOLM14 F691L”, “mL” for “μL”, “mM)” for “μM)”

Chain of IRAK1 (P51617 whole entry, the tested form may be a part): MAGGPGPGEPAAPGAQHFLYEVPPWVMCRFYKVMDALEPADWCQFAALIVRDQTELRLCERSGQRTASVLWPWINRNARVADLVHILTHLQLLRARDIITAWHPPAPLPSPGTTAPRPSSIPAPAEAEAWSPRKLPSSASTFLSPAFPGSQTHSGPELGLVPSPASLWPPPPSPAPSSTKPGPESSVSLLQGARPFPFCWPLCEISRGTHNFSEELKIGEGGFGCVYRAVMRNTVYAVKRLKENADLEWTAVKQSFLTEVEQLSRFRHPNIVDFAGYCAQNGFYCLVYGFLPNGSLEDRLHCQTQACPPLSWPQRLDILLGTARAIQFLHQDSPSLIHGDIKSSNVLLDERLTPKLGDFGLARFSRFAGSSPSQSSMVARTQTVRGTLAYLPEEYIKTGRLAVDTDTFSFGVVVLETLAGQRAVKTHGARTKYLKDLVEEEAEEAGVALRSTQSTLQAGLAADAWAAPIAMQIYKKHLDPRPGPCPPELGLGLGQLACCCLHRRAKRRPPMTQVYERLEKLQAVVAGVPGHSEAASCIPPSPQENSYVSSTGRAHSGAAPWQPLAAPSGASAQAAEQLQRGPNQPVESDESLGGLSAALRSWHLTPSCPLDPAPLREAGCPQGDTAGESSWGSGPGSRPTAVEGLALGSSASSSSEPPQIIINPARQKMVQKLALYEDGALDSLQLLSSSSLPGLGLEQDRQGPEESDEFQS

Row | Compound | IC50 ([1]; Table 11) [nM] | IC50 ([2]; MOLM-14, Table 16, 48 h) [nM] | IC50 ([1]; Table 17) [nM] | IC50 ([2]; MOLM-14, Table 22, 48 h) [nM]
1 | COc1cn2ncc(-c3nc(N[C@@H]4CCCNC4)ccc3F)c2nc1C1CC1 [Compound 2, (R)-6-(5-cyclopropyl-6-methoxypyrazolo[1,5-a]pyrimidin-3-yl)-5-fluoro-N-(piperidin-3-yl)pyridin-2-amine] | 4 | 2 | – | –
2 | COc1cn2ncc(-c3nc(N[C@H]4CNCC[C@@H]4F)ccc3F)c2nc1C1CC1 [Compound 3, 6-(5-cyclopropyl-6-methoxypyrazolo[1,5-a]pyrimidin-3-yl)-5-fluoro-N-((3S,4S)-4-fluoropiperidin-3-yl)pyridin-2-amine] | 0.8 | 2 | – | –
3 | COc1cn2ncc(-c3ccnc(N[C@H]4CNCC[C@@H]4F)n3)c2nc1C(C)(C)O [Compound 3a, 2-(3-(2-(((3S,4S)-4-fluoropiperidin-3-yl)amino)pyrimidin-4-yl)-6-methoxypyrazolo[1,5-a]pyrimidin-5-yl)propan-2-ol] | – | – | 207 | 86
4 | COc1cn2ncc(-c3nc(N[C@@H]4CCCNC4)ncc3F)c2nc1C(C)(C)O [Compound 4a, (R)-2-(3-(5-fluoro-2-(piperidin-3-ylamino)pyrimidin-4-yl)-6-methoxypyrazolo[1,5-a]pyrimidin-5-yl)propan-2-ol] | – | – | 4 | 11
5 | COc1cn2ncc(-c3ccc(F)c(N[C@@H]4CCCNC4)n3)c2nc1C1CC1 [Compound 5, (R)-6-(5-cyclopropyl-6-methoxypyrazolo[1,5-a]pyrimidin-3-yl)-3-fluoro-N-(piperidin-3-yl)pyridin-2-amine] | 29 | 20 | – | –
6 | COc1cn2ncc(-c3nc(N[C@H]4CNC[C@@H]4F)ncc3F)c2nc1C(C)(C)O [Compound 5a, 2-(3-(5-fluoro-2-(((3S,4S)-4-fluoropyrrolidin-3-yl)amino)pyrimidin-4-yl)-6-methoxypyrazolo[1,5-a]pyrimidin-5-yl)propan-2-ol] | – | – | 6 | 25
7 | COc1cn2ncc(-c3ccc(F)c(N[C@H]4CNCC[C@@H]4F)n3)c2nc1C1CC1 [Compound 6, 6-(5-cyclopropyl-6-methoxypyrazolo[1,5-a]pyrimidin-3-yl)-3-fluoro-N-((3S,4S)-4-fluoropiperidin-3-yl)pyridin-2-amine] | 4 | 11 | – | –
8 | COc1cn2ncc(-c3nc(N[C@H]4CNCC[C@@H]4F)ncc3F)c2nc1C(C)(C)O [Compound 6a, 2-(3-(5-fluoro-2-(((3S,4S)-4-fluoropiperidin-3-yl)amino)pyrimidin-4-yl)-6-methoxypyrazolo[1,5-a]pyrimidin-5-yl)propan-2-ol] | – | – | 3 | 5
9 | COc1cn2ncc(-c3nc(N[C@H]4CNCC[C@@H]4F)c(C#N)cc3F)c2nc1C1CC1 [Compound 7, 6-(5-cyclopropyl-6-methoxypyrazolo[1,5-a]pyrimidin-3-yl)-5-fluoro-2-(((3S,4S)-4-fluoropiperidin-3-yl)amino)nicotinonitrile] | < 0.5 | – | – | –
10 | COc1cn2ncc(-c3ccnc(N[C@H]4CNCC[C@@H]4F)n3)c2nc1C1CC1 [Compound 7a, 4-(5-cyclopropyl-6-methoxypyrazolo[1,5-a]pyrimidin-3-yl)-N-((3S,4S)-4-fluoropiperidin-3-yl)pyrimidin-2-amine] | – | – | 8 | 7
11 | COc1cn2ncc(-c3ccnc(N[C@H]4CNC[C@@H]4F)n3)c2nc1C1CC1 [Compound 8a, 4-(5-cyclopropyl-6-methoxypyrazolo[1,5-a]pyrimidin-3-yl)-N-((3S,4S)-4-fluoropyrrolidin-3-yl)pyrimidin-2-amine] | – | – | 9 | 26
12 | COc1cn2ncc(-c3nc(N[C@@H]4CCCNC4)c(C#N)cc3F)c2nc1C(C)(C)O [Compound 9, (R)-5-fluoro-6-(5-(2-hydroxypropan-2-yl)-6-methoxypyrazolo[1,5-a]pyrimidin-3-yl)-2-(piperidin-3-ylamino)nicotinonitrile] | 3 | 16 | – | –
13 | COc1cn2ncc(-c3nc(N[C@H]4CNCC[C@@H]4F)c(C#N)cc3F)c2nc1C(C)(C)O [Compound 10, 5-fluoro-2-(((3S,4S)-4-fluoropiperidin-3-yl)amino)-6-(5-(2-hydroxypropan-2-yl)-6-methoxypyrazolo[1,5-a]pyrimidin-3-yl)nicotinonitrile] | 2 | – | – | –
14 | COc1cn2ncc(-c3nc(N[C@@H]4CCCNC4)c(F)cc3F)c2nc1C(C)(C)O [Compound 11, (R)-2-(3-(3,5-difluoro-6-(piperidin-3-ylamino)pyridin-2-yl)-6-methoxypyrazolo[1,5-a]pyrimidin-5-yl)propan-2-ol] | 3 | 13 | – | –
15 | COc1cn2ncc(-c3cncc(N[C@@H]4CCCNC4)n3)c2nc1C1CC1 [Compound 11a, (R)-6-(5-cyclopropyl-6-methoxypyrazolo[1,5-a]pyrimidin-3-yl)-N-(piperidin-3-yl)pyrazin-2-amine] | – | – | 15 | 29
16 | COc1cn2ncc(-c3nc(N[C@H]4CNC[C@@H]4F)c(F)cc3F)c2nc1C(C)(C)O [Compound 12, 2-(3-(3,5-difluoro-6-(((3S,4S)-4-fluoropyrrolidin-3-yl)amino)pyridin-2-yl)-6-methoxypyrazolo[1,5-a]pyrimidin-5-yl)propan-2-ol] | 9 | 32 | – | –
17 | COc1cn2ncc(-c3cncc(N[C@H]4CNCC[C@@H]4F)n3)c2nc1C1CC1 [Compound 12a, 6-(5-cyclopropyl-6-methoxypyrazolo[1,5-a]pyrimidin-3-yl)-N-((3S,4S)-4-fluoropiperidin-3-yl)pyrazin-2-amine] | – | – | 6 | 12
18 | COc1cn2ncc(-c3nc(N[C@H]4CNCC[C@@H]4F)c(F)cc3F)c2nc1C(C)(C)O [Compound 13, 2-(3-(3,5-difluoro-6-(((3S,4S)-4-fluoropiperidin-3-yl)amino)pyridin-2-yl)-6-methoxypyrazolo[1,5-a]pyrimidin-5-yl)propan-2-ol] | 7 | 14 | – | –
19 | COc1cn2ncc(-c3nc(N[C@H]4CNC[C@@H]4F)ncc3F)c2nc1C1CC1 [Compound 13a, 4-(5-cyclopropyl-6-methoxypyrazolo[1,5-a]pyrimidin-3-yl)-5-fluoro-N-((3S,4S)-4-fluoropyrrolidin-3-yl)pyrimidin-2-amine] | – | – | < 0.5 | 4
20 | COc1cn2ncc(-c3nc(N[C@@H]4CCCNC4)ncc3F)c2nc1C1CC1 [Compound 14a, (R)-4-(5-cyclopropyl-6-methoxypyrazolo[1,5-a]pyrimidin-3-yl)-5-fluoro-N-(piperidin-3-yl)pyrimidin-2-amine] | – | – | 0.9 | 1
